The text below walks through data of PMC5371824, “Phosphatidylinositol (4,5)-bisphosphate dynamically regulates the K2P background K^+ channel TASK-2” (Scientific Reports, 2017).

Substitutions are numbered along the chain they refer to. “Also recorded” adds a separate entry of the source.

One test concerns the target T1, TASK-2-K297C (Mus musculus, UniProt F6V9U5, K297C).
T1 construct: expressed in transfected cells; host or cells: HEK-293
T1 sequence (F6V9U5 1-502 K297C): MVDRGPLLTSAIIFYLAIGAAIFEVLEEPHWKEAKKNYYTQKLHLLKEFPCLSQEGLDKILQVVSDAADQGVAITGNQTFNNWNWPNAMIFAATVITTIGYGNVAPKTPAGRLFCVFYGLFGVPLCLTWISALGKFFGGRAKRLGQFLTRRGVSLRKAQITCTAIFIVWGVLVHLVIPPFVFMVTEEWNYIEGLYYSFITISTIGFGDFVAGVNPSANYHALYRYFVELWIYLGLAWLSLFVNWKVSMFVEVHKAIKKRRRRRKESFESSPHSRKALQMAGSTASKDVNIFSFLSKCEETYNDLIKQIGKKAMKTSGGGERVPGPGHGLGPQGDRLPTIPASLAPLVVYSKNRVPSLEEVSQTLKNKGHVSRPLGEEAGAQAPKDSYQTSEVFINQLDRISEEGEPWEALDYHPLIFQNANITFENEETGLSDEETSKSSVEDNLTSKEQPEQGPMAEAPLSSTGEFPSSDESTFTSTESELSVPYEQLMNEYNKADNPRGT
As to the kind of experiment: Excised inside-out patch recording, TASK-2-K297C mutant. The class given is biochemical. Conditions: 2 mM reducing agent, inside-out patch. How it is done:
Figure 6 Scanning of potential sites of interaction of TASK-2 with PI(4,5)P2 by cysteine mutagenesis of intracellular basic residues. (A) Schematic representation of TASK-2 topology showing the sequences of segments of the protein predicted to be intracellular or intracellular-facing. Basic residues are highlighted in red. (B) Recording from an excised inside-out patch of membrane taken from a HEK-293 cell over-expressing TASK-2. The patch was held at −60 mV in the presence of 1 mM ATP. At the intervals indicated by the boxes the intracellular aspect of the membrane was exposed to 300 μM Neomycin and then to 100 μM TPeA. At the end of the TPeA period the patch was additionally exposed to 1 mM MTSET as shown by the black box. (C and D) experiments as in (B), but with inside-out membrane patches obtained from cells expressing the mutants TASK-2-H327C and TASK-2-K297C respectively. In D the reducing agent DTT was also added at 2 mM. (E) Summary of experiments comparing the current before and after treatment with MTSET.
Mus musculus TASK-2 (GenBank accession No. AF319542) plasmid was that obtained from mouse kidney. The cDNAs was subcloned into the pCR3.1 vector. Mutations were made by site-directed mutagenesis into the pCR3.1 vector as previously described[69] and confirmed by sequencing. HEK-293 cells were cultured in Dulbecco’s modified Eagle’s medium (DMEM) and F12 Ham’s medium at a 1:1 ratio and supplemented with 10% fetal calf serum at 37 °C in 5% CO2. For electrophysiological experiments, transient transfections were performed by electroporation, using CD8 cotransfection to identify effectively transfected cells. […] Experiments were performed 4–8 h after electroporation. […]
Recordings in the inside-out isolated patch configuration were performed in the gap-free mode at −60 mV. […] Traces shown are prints from crude Clampfit screen shots and quantification was done using the average currents were calculated at intervals using Clampfit after baseline adjustment.

Test [1] has as its target T2, TASK-2 (Mus musculus, UniProt F6V9U5).
T2 construct: expressed in transfected cells; host or cells: HEK-293
T2 sequence (F6V9U5 1-502): T1 sequence (F6V9U5 1-502 K297C) with C297K
Briefly: Excised inside-out patch recording from HEK-293 cells over-expressing TASK-2. The class given is biochemical. Conditions: for Effect of readmitted ATP relative to the maximal effect elicited by the PIP: 1 mM ATP added after PIP, inside-out patches, Fig. S3; for Stimulating effect on TASK-2-mediated currents after run-down: diC8 PIP added to inside-out excised patches; for Stimulating effect on TASK-2-mediated currents after run-down / Maximal fold effect on TASK-2 current (normalised to current in absence of PIP) / EC50 / Hill coefficient nH of dose response curve: absence of ATP; for Maximal fold effect on TASK-2 current (normalised to current in absence of PIP) / EC50 / Hill coefficient nH of dose response curve: diC8 PIP; for Maximal fold effect on TASK-2 current (normalised to current in absence of PIP) / EC50: -60 mV, from fits, means ± SEM; for EC50: read-out: K0.5 (EC50) for activation of TASK-2 current.
Method: Recordings in the inside-out isolated patch configuration were performed in the gap-free mode at −60 mV. The inside aspect of the patch was bathed with a solution containing in mM: 10 KCl, 10 Glucose, 1 MgCl2, 10 EGTA, 1 Na3ATP, 0.1 GTP, 6.8 g/100 ml Sucrose, 10 Hepes/Tris, pH 7.4. The pipette contained in mM: 140 KCl, 10 Glucose, 6.8 g/100 ml Sucrose, 10 Hepes/Tris pH 7.4. For isolated patches, borosilicate capillaries (Harvard Apparatus GC150F-10 1.5 ODx0.86 ID) were fire polished to 4–5 MΩ and covered in beeswax. Acquisition was at 10 kHz with filter at 3 kHz (4-pole Bessel) and analysis was done with Clampfit 9.0 (Axon Instruments, Foster City, CA, USA). Traces shown are prints from crude Clampfit screen shots and quantification was done using the average currents were calculated at intervals using Clampfit after baseline adjustment.

In test [2] the target is T2, TASK-2. Briefly: Whole-cell patch-clamp of HEK-293 cells expressing TASK-2. The format is cell-based. Here is the method: Mus musculus TASK-2 (GenBank accession No. AF319542) plasmid was that obtained from mouse kidney. The cDNAs was subcloned into the pCR3.1 vector. Mutations were made by site-directed mutagenesis into the pCR3.1 vector as previously described[69] and confirmed by sequencing. HEK-293 cells were cultured in Dulbecco’s modified Eagle’s medium (DMEM) and F12 Ham’s medium at a 1:1 ratio and supplemented with 10% fetal calf serum at 37 °C in 5% CO2. For electrophysiological experiments, transient transfections were performed by electroporation, using CD8 cotransfection to identify effectively transfected cells. […] Experiments were performed 4–8 h after electroporation. In experiments with the voltage-sensitive phosphatase TASK-2 or its mutants were co-electroporated with a pCR3.1-DrVSP-IRES-CD8 vector.
Transiently transfected HEK-293 cells in 35 mm Petri dishes were transferred to the stage of an inverted microscope for study. There they were continuously superfused with a bathing solution containing (in mM): 67.5 Na2SO4, 4 KCl, 1 K gluconate, 2 CaCl2, 1 MgCl2, 105 sucrose, and 10 Hepes/Tris (pH 7.5) (standard solution). A high K^+ solution was obtained by equimolar replacement of Na^+ by K^+. The pipette solution contained (mM) 8 KCl, 132 potassium gluconate, 1 MgCl2, 10 EGTA, 1 Na3ATP, 0.1 GTP, 10 HEPES/Tris, pH 7.4. Standard whole-cell, patch-clamp recordings were performed as described elsewhere. All our whole-cell experiments keep both intra- and extracellular chloride at 10 mM and although currents were measured at several potentials, data mostly reported are those obtained at 0 mV. Potentials were corrected for liquid junction shifts. Acquisition and analysis was done with Clampfit 9.0 (Axon Instruments, Foster City, CA, USA). Further data analysis was done using the curve fitting features of SigmaPlot v. 12 (Systat Software Inc., San Jose, CA, USA).
On the technique in general: Patch clamp records ionic current or voltage across a cell membrane.

A further test concerns TASK-3. As to the kind of experiment: Whole-cell current in TASK-3-expressing cells. The class given is cell-based. Conditions: 100 nM 1,2-dioctanoyl-sn-glycerol, pulses to 0 mV from -75 mV. Here is the method: (§1) Figure 3 Gq protein coupled receptor inhibition of TASK-2 and minor effect of diacylglycerol. (A) Effect of activation of the angiotensin II receptor AT1 on TASK-2-mediated currents. HEK-293 cells were co-transfected with AT1 and TASK-2, or the TASK-2-K257A-K258A mutant. Current was monitored by brief pulses to 0 mV from a holding potential of −75 mV. Angiotensin II at a concentration of 1 μM was added during the indicated time. Results are means ± SEM of 6 experiments for TASK-2 and 4 experiments for TASK-2-K257A-K258A. (B) Effect of a diacylglycerol analogue assayed on TASK-2- and TASK-3-expressing cells. Current was monitored by brief pulses to 0 mV from a holding potential of −75 mV. The box labelled DAG indicates the addition of diacylglycerol short-chain analogue 1,2-dioctanoyl-sn-glycerol at 100 nM. Results are means ± SEM of 5 experiments for TASK-2 and 8 experiments for TASK-3.
(§2) Transiently transfected HEK-293 cells in 35 mm Petri dishes were transferred to the stage of an inverted microscope for study. […] All our whole-cell experiments keep both intra- and extracellular chloride at 10 mM and although currents were measured at several potentials, data mostly reported are those obtained at 0 mV. […]

Test [3] relates to TASK-2 expressed with angiotensin II AT1 receptors. Briefly: Whole-cell current in HEK-293 cells co-transfected with AT1 and TASK-2. The class given is cell-based, Mus musculus. The following applies: 1 μM, pulses to 0 mV from -75 mV.
Method: Transiently transfected HEK-293 cells in 35 mm Petri dishes were transferred to the stage of an inverted microscope for study. There they were continuously superfused with a bathing solution containing (in mM): 67.5 Na2SO4, 4 KCl, 1 K gluconate, 2 CaCl2, 1 MgCl2, 105 sucrose, and 10 Hepes/Tris (pH 7.5) (standard solution). […] All our whole-cell experiments keep both intra- and extracellular chloride at 10 mM and although currents were measured at several potentials, data mostly reported are those obtained at 0 mV. […]
The subject of another test is TASK-2-K257A-K258A. Briefly: Whole-cell current in HEK-293 cells co-transfected with AT1 and TASK-2-K257A-K258A. The format is cell-based, Mus musculus. Conditions: 1 μM, pulses to 0 mV from -75 mV, Gβγ-insensitive mutant. Here is the method:
as §1
Mus musculus TASK-2 (GenBank accession No. AF319542) plasmid was that obtained from mouse kidney. The cDNAs was subcloned into the pCR3.1 vector. […]
as §2

For `O[C@@H](CS)[C@@H](O)CS` (racemic) [DTT, dithiothreitol], the “Reversal of the MTSET effect on TASK-2-K297C” value at TASK-2-K297C is on record as “reversed, at least partially”. For the same molecule, the “Reversal of MTSET inhibition of WT TASK-2” value on TASK-2 [1] (2 mM reducing agent, inside-out patch, Fig. S4) is on record as “reversibility of the effect”.
For `CCCCCCCC(=O)OC[C@H](COP(=O)(O)O[C@H]1[C@H](O)[C@@H](O)[C@H](OP(=O)(O)O)[C@@H](OP(=O)(O)O)[C@H]1O)OC(=O)CCCCCCC` [PI(3,4)P2, phosphatidylinositol 3,4-bisphosphate diC8], at TASK-2 [1], the “Effect of readmitted ATP relative to the maximal effect elicited by the PIP” value was 1.4 fold and the “Stimulating effect on TASK-2-mediated currents after run-down” value (“Stimulating effect” below) is recorded as “Robust, but intermediate effects”. Also, on TASK-2 [1] (inside-out patch), the “Maximal fold effect on TASK-2 current (normalised to current in absence of PIP)” value amounted to 4.3 ± 0.4 fold, the EC50 came to 48.4 ± 4.6 µM and the “Hill coefficient nH of dose response curve” value was found to be 2.
For the molecule `CCCCC[N+](CCCCC)(CCCCC)CCCCC` [TPeA, tetrapentyl ammonium], the IC50 on TASK-2 [1] is around 2 µM.
Turning to `Nc1ncnc2c1ncn2[C@@H]1O[C@H](CO[P@](=O)(O)O[P@](=O)(O)O[P@@](=O)(O)S)[C@@H](O)[C@H]1O` [ATP-γ-S, adenosine-5′-(γ-thio)-triphosphate], the “Ability to support TASK-2-mediated current in place of ATP” value at TASK-2 [2] (whole-cell, pipette solution with non-hydrolysable analogue, 0 mV) is “unable to support the TASK-2-mediated current”.
As to poly-lysine, at TASK-2 [1] (in the presence of intracellular ATP), the “Inhibition of TASK-2 activity by polycation PI scavengers” value is listed as “inhibit TASK-2 activity”.
Turning to `CCCCCCCC(=O)OC[C@H](CO)OC(=O)CCCCCCC` [DAG, 1,2-dioctanoyl-sn-glycerol], in the test on TASK-3, the “Effect on TASK-3 current” value is recorded as “strong inhibition”. For the same molecule, the “Effect on TASK-2 current” value at TASK-2 [2] (100 nM 1,2-dioctanoyl-sn-glycerol, pulses to 0 mV from -75 mV) was “only a minor effect”.
On to `CCCCCCCC(=O)OC[C@H](COP(=O)(O)O[C@H]1[C@H](O)[C@@H](O)[C@H](OP(=O)(O)O)[C@@H](O)[C@H]1O)OC(=O)CCCCCCC` [PI(4)P, phosphatidylinositol 4-monophosphate diC8], for which, on TASK-2 [1], the “Effect of readmitted ATP relative to the maximal effect elicited by the PIP” value came to 5.6 fold and the “Stimulating effect” value is reported as “quite small; also recorded: rather weak”. For the same molecule, at TASK-2 [1] (inside-out patch), the “Maximal fold effect on TASK-2 current (normalised to current in absence of PIP)” value turned out to be 1.4 ± 0.4 fold, the EC50 was 50.6 ± 1.3 µM and the “Hill coefficient nH of dose response curve” value is 2.
`CCCCCCCC(=O)OC[C@H](COP(=O)(O)O[C@H]1[C@H](O)[C@@H](OP(=O)(O)O)[C@H](OP(=O)(O)O)[C@@H](OP(=O)(O)O)[C@H]1O)OC(=O)CCCCCCC` [PI(3,4,5)P3, phosphatidylinositol 3,4,5-trisphosphate diC8]: at TASK-2 [1], the “Stimulating effect” value was “Largest effect; also recorded: most potent effect”. In addition, at TASK-2 [1] (inside-out patch), the “Maximal fold effect on TASK-2 current (normalised to current in absence of PIP)” value worked out at 11.6 ± 1.6 fold and the EC50 was 29.8 ± 10.2 µM.
Take “angiotensin II (DRVYIHPF; Angiotensin-2; UniProt P01019 25-32, looked up) [agonist of the Gq-coupled angiotensin II AT1 receptor]”: in test [3], the “Effect on TASK-2-mediated current via AT1 receptor” value is reported as “markedly inhibited”. The “Effect on TASK-2-K257A-K258A current via AT1, compared with TASK-2” value in the test with TASK-2-K257A-K258A is recorded as “not significantly different”.

Usually EC50 stands for the midpoint of the concentration-response curve. The IC50 is the concentration that gives 50% inhibition.
